Assay results taken from patent publication US4102994A, “Aliphatic amido-quaternary ammonium anti-microbial compounds” (Colgate-Palmolive Company, priority 1977, dated 1978).
Where two headings read alike, the source gives them in different places.

Columns and labels:
A. niger = assay: Test tube serial dilution test (minimal inhibitory concentration); type: cell-based; conditions: Aspergillus niger, broth serial dilution, read-out: Minimum Inhibitory Concentration
Method: (§1) The anti-microbial nature of the instant novel compounds was shown by a standard test tube serial dilution test in which an appropriate number of test tubes of broth containing decreasing concentrations of the test agent was innoculated with the test organism. After a suitable period of incubation, the tubes were examined for the presence or absence of growth. The activity of the test agent was the lowest concentration which inhibited the growth of the organism and is expressed as the minimal inhibitory concentration in ppm. As shown in the following table of antimicrobial data, a definite break occurs between compounds wherein R^4 contains 8 carbons and 10 carbons.

C. albicans = assay: as above; type: cell-based; conditions: Candida albicans
Method: as §1

E. coli = assay: as above; type: cell-based; conditions: Escherichia coli
Method: as §1

P. aeruginosa = assay: as above; type: cell-based; conditions: Pseudomonas aeruginosa, broth serial dilution, read-out: Minimum Inhibitory Concentration
Method: as §1

S. aureus = assay: as above; type: cell-based; conditions: Staphylococcus aureus
Method: as §1

Str. mutans = assay: as above; type: cell-based; conditions: Streptococcus mutans, broth serial dilution, read-out: Minimum Inhibitory Concentration
Method: as §1

Str. sanguis = assay: as above; type: cell-based; conditions: Streptococcus, broth serial dilution, read-out: Minimum Inhibitory Concentration
Method: as §1

A. naeslundii = assay: as above; type: cell-based, Actinomycetes naeslundii; conditions: Actinomyces naeslundii, broth serial dilution, read-out: Minimum Inhibitory Concentration
Method: as §1

T. mentagrophytes = assay: as above; type: cell-based, Trichophyton mentogrophytes; conditions: Trichophyton mentagrophytes
Method: as §1

Str. mitis = assay: as above; type: cell-based; conditions: Streptococcus mitis
Method: as §1

dental calculus = assay: Dental calculus inhibition in rats on Zipkin-McClure calculus producing diet, Baer's method; type: in vivo, littermated albino rats; conditions: .1% test solution, teeth swabbed thirty seconds each day for six weeks, vs water control, 99% significant
From the text: The quaternary ammonium amides of adamantanecarboxylic acid are particularly effective in inhibiting the development of dental calculus as shown by the results of tests on littermated albino rats, in groups of 15 males and 15 females who were fed a Zipkin-McClure calculus producing diet. For six weeks the teeth of each animal were swabbed for thirty seconds each day with a test solution or water for the control group. The animals were then sacrificed, defleshed and scored by Baer's method for calculus. The results were analyzed by Student's "t" test and in the results quoted were 99% significant.

[1] = C. albicans, broth serial dilution, read-out: Minimum Inhibitory Concentration
[2] = E. coli, broth serial dilution, read-out: Minimum Inhibitory Concentration
[3] = S. aureus, broth serial dilution, read-out: Minimum Inhibitory Concentration
[4] = T. mentagrophytes, broth serial dilution, read-out: Minimum Inhibitory Concentration
[5] = Str. mitis, broth serial dilution, read-out: Minimum Inhibitory Concentration
[6] = Table III, no quantity or unit printed in the table, minimal inhibitory concentration in ppm, read-out: antimicrobial results, C.albicans (Table III)
[7] = Table III, no quantity or unit printed in the table, minimal inhibitory concentration in ppm, read-out: antimicrobial results, E.coli (Table III)
[8] = read-out: antimicrobial results, S.aureus (Table III)
[9] = Table III, no quantity or unit printed in the table, minimal inhibitory concentration in ppm, read-out: antimicrobial results, S.mitis (Table III)
[10] = Table III, no quantity or unit printed in the table, minimal inhibitory concentration in ppm, read-out: antimicrobial results, T.mentagrophytes (Table III)

Row | Compound | MIC (A. niger) [µg/mL] | MIC (C. albicans; [1]) [µg/mL] | MIC (E. coli; [2]) [µg/mL] | MIC (P. aeruginosa) [µg/mL] | MIC (S. aureus; [3]) [µg/mL] | MIC (Str. mutans) [µg/mL] | MIC (Str. sanguis) [µg/mL] | MIC (A. naeslundii) [µg/mL] | MIC (T. mentagrophytes; [4]) [µg/mL] | MIC (Str. mitis; [5]) [µg/mL] | Calculus Reduction, Females (dental calculus; females) [%] | Calculus Reduction, Males (dental calculus; males) [%] | MIC (C. albicans; [6]) [µg/mL] | MIC (E. coli; [7]) [µg/mL] | MIC (S. aureus; [8]) [µg/mL] | MIC (Str. mitis; [9]) [µg/mL] | MIC (T. mentagrophytes; [10]) [µg/mL]
1 | CCCCCCCCCCCCCC[N+](C)(C)CCCNC(=O)[C@H]1CC[C@@H]2CCC[C@@H]21 (relative stereo) [Comp.14, 3-(exo,cis-Bicyclooctane-2-carboxamido)propyltetradecyl dimethyl ammonium bromide] | 25 | 3.12 | 50 | 50 | 0.78 | < 0.05 | 6.25 | < 0.05 | 3.12 |  |  |  |  |  |  |  | 
2 | CCCCCCCCCCCC[N+](C)(C)CCCNC(=O)[C@H]1CC[C@@H]2CCC[C@@H]21 (relative stereo) [Comp.15] | 25 | 3.12 | 25 | 25 | 1.56 | 0.1 | 3.12 | 0.19 | 6.25 |  |  |  |  |  |  |  | 
3 | CCCCCCCCCC[N+](C)(C)CCCNC(=O)CCCCCCC.[I-] [Comp.3, 3-Octaneamidopropyldimethyldecyl ammonium iodide] | 25 | 6.25 | 50 | 25 | 12.5 | 0.78 | 6.25 | 12.5 | 12.5 |  |  |  |  |  |  |  | 
4 | CCCCCCCCCCCC[N+](C)(C)CCCNC(=O)C12CC3CC(CC(C3)C1)C2 [Comp.9, 3-(1'-adamantanecarboxamido)propyldimethyldodecyl ammonium bromide] | 25 | 6.25 | 50 |  | 0.78 |  |  |  | 12.5 | 0.39 |  |  |  |  |  |  | 
5 | CCCCCCCCCCCCCC[N+](C)(C)CCCNC(=O)C12CC3CC(CC(C3)C1)C2 [Comp.10, 3-(1'-adamantanecarboxamido)propyldimethyltetradecyl ammonium bromide] | 50 | 6.25 | 25 |  | 0.39 |  |  |  | 25 | 0.39 | 6.27 | 43.43 |  |  |  |  | 
6 | CCCCCCCCCCCCCC[N+](C)(C)CCCNC(=O)C1CC2CCC1C2 (centres unmarked) [Comp.16, 3-(2'-norbornanecarboxamido)propyltetradecyldimethyl ammonium bromide] | 25 | 3.12 | 50 | 50 | 1.56 | 0.1 | 1.56 | 0.1 | 6.25 |  |  |  |  |  |  |  | 
7 | CCCCCCCCCCCCCC[N+](C)(C)CCCNC(=O)C(CC)CCCC (centres unmarked) [R *C7 (branch), R^4 C14, X Cl] |  |  |  |  |  |  |  |  |  |  |  |  | 3.12 | 50 | 0.78 | 1.56 | 6.25
8 | CCCCCCCCCCCC[N+](C)(C)CCCNC(=O)C(CC)CCCC (centres unmarked) [R *C7 branch, R^4 C12, X I] |  |  |  |  |  |  |  |  |  |  |  |  | 3.12 | 50 | 1.56 | 3.12 | 12.5
9 | CCCCCCCCCCCCCC[N+](C)(C)CCCNC(=O)CCCCCCC.[Cl-] [R C7, R^4 C14, X Cl, 3-Octaneamidopropyldimethyltetradecyl ammonium chloride] |  |  |  |  |  |  |  |  |  |  |  |  | 3.12 | 50 | 0.78 | 1.56 | 3.12
10 | CCCCCCCCCCCC[N+](C)(C)CCCNC(=O)CCCCCCCC [R C8, R^4 C12, X I] |  |  |  |  |  |  |  |  |  |  |  |  | 1.56 | 12.5 | 0.78 | 1.56 | 12.5
11 | CCCCCCCCCCCCCC[N+](C)(C)CCCNC(=O)CCCCCCCC.[Cl-] [R C8, R^4 C14, X Cl, 3-Nonaneamidopropyldimethyltetradecyl ammonium chloride] |  |  |  |  |  |  |  |  |  |  |  |  | 1.56 | 100 | 1.56 | 0.78 | 3.12
12 | CCCCCCCCCCCCCC[N+](C)(C)CCCNC(=O)CCCCCCCCC.[Cl-] [R C9, R^4 C14, X Cl, 3-Decaneamidopropyldimethyltetradecyl ammonium chloride] |  |  |  |  |  |  |  |  |  |  |  |  | 3.12 | 100 | 3.12 | 6.25 | 6.25
13 | CCCCCCCCCCCC(=O)NCCC[N+](C)(C)C [R C11, R^4 C1, X I, reference compound] |  |  |  |  |  |  |  |  |  |  |  |  | 50 | 50 | 50 | 50 | 50
14 | CCCCCCCCCCCCCC[N+](C)(C)CCCNC(=O)CCCCCCCCCCC.[Cl-] [R C11, R^4 C14, X Cl, 3-Dodecaneamidopropyldimethyltetradecyl ammonium chloride] |  |  |  |  |  |  |  |  |  |  |  |  | 25 | 100 | 6.25 | 12.5 | 25
15 | CCCC[N+](CC)(CC)CCNC(=O)C12CC3CC(CC(C3)C1)C2 [R^4 =C4 H9, reference compound] | 100 | 100 |  |  | 100 | 100 | 50 | 100 | 50 |  |  |  |  |  |  |  | 
16 | CCCCCC[N+](CC)(CC)CCNC(=O)C12CC3CC(CC(C3)C1)C2 [R^4 =C6 H13, reference compound] | 100 | 100 |  |  | 100 | 100 | 50 | 50 | 50 |  |  |  |  |  |  |  | 
17 | CCCCCCCC[N+](CC)(CC)CCNC(=O)C12CC3CC(CC(C3)C1)C2 [R^4 =C8 H17, reference compound] | 100 | 50 |  |  | 25 | 25 | 50 | 12.5 | 50 |  |  |  |  |  |  |  | 
18 | CCCCCCCCCC[N+](CC)(CC)CCNC(=O)C12CC3CC(CC(C3)C1)C2 [R^4 =C10 H21] | 50 | 6.25 |  |  | 3.12 | 6.25 | 6.25 | 1.56 | 50 |  |  |  |  |  |  |  | 
19 | CCCCCCCCCCCC[N+](CC)(CC)CCNC(=O)C12CC3CC(CC(C3)C1)C2 [R^4 =C12 H25] | 12.5 | 1.56 |  |  | 1.56 | 0.78 | 3.12 | 0.39 | 3.12 |  |  |  |  |  |  |  | 
